Test results: US20230278972A1, “SUBSTITUTED HALOALKYL SULFONANILIDE HERBICIDES” (FMC Corporation, priority 2020, published 2023)

Assays:
Type in all cases: in vivo
corn (Zea mays) = experiment: Test A1 preemergence, corn
Procedure, shortened: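 Plants were grown in a loam soil/sand blend, with test chemicals formulated in a non-phytotoxic solvent mixture containing surfactant. Preemergence treatment (corn) was a directed soil spray at planting. Postemergence treatment was applied to plants 2 to 10 cm tall at the one- to two-leaf stage.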

[1] = system: Foxtail, Giant (giant foxtail, Setaria faberi); experiment: Test A1 preemergence, Foxtail, Giant
Procedure, shortened: (§1)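 Plants grown in pots of loam/sand mix; preemergence = soil-directed spray on seeded pots, postemergence = spray at 1–2 leaves, height 2–10 cm; test chemicals formulated in non-phytotoxic solvent with surfactant.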

[2] = system: ragweed (common ragweed, Ambrosia artemisiifolia); experiment: Test A1 preemergence, ragweed
Procedure, shortened: as §1

[3] = system: Ryegrass, Italian (Italian ryegrass, Lolium multiflorum); experiment: Test A1 preemergence, Ryegrass, Italian
Procedure, shortened: as §1

[4] = system: blackgrass (Alopecurus myosuroides); experiment: Test A1 postemergence, blackgrass; settings: Postemergence, 0 to 100 scale (0 no effect, 100 complete control)
Procedure, shortened: (§2)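 Both timings started from seed in a loam-sand blend. Preemergence pots got a directed soil application immediately; postemergence pots were sprayed when seedlings had one or two leaves and stood 2–10 cm. Each compound was prepared in a non-phytotoxic solvent plus surfactant.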

[5] = system: Foxtail, Giant (giant foxtail, Setaria faberi); experiment: Test A1 postemergence, Foxtail, Giant; settings: Postemergence
Procedure, shortened: as §2

[6] = system: goosegrass (Eleusine indica); experiment: Test A1 postemergence, goosegrass; settings: Postemergence
Procedure, shortened: as §2

[7] = system: galium (catchweed bedstraw, Galium aparine); experiment: Test A1 postemergence, galium; settings: Postemergence
Procedure, shortened: as §2

[8] = 31 g ai/ha, 0 to 100 scale (0 no effect, 100 complete control)
[9] = 125 g ai/ha, 0 to 100 scale, 0 no effect, 100 complete control
[10] = 31 g ai/ha, 0 to 100 scale (0 no effect, 100 complete control), 10 days

Row | SMILES | Plant response rating, Corn (corn (Zea mays); [8]) | Plant response rating, Corn (corn (Zea mays); [9]) | Plant response rating, Foxtail, Giant [1, 8] | Plant response rating, Foxtail, Giant [1, 9] | Plant response rating, Ragweed [2, 8] | Plant response rating, Ragweed [2, 9] | Plant response rating, Ryegrass, Italian [3, 8] | Plant response rating, Ryegrass, Italian [3, 9] | Plant response rating, Blackgrass ([4]; 31 g ai/ha, 10 days) | Plant response rating, Blackgrass ([4]; 125 g ai/ha) | Plant response rating, Foxtail, Giant [5, 10] | Plant response rating, Foxtail, Giant ([5]; 125 g ai/ha, 0 to 100 scale) | Plant response rating, Goosegrass [6, 10] | Plant response rating, Goosegrass ([6]; 125 g ai/ha, 0 to 100 scale) | Plant response rating, Galium [7, 10] | Plant response rating, Galium ([7]; 125 g ai/ha, 0 to 100 scale)
1 | Cc1cc(Br)c(C2=NOC3CCCC23)cc1NS(=O)(=O)C(F)(F)F (stereo not drawn) [Compound 302] | 0 | 0 | 20 | 80 | 0 | 30 | 50 | 90 | 0 | 0 | 0 | 0 | 0 | 10 | 0 | 0
2 | COCC1CC(c2cc(NS(=O)(=O)C(F)(F)F)c(C)cc2C)=NO1 (stereo not drawn) [Compound 319] | 40 | 90 | 90 | 100 | 0 | 70 | 50 | 90 | 0 | 10 | 40 | 90 | 70 | 90 | 40 | 70
3 | Cc1cc(C)c(C2=NOC3COCC23)cc1NS(=O)(=O)C(F)(F)F (stereo not drawn) [Compound 297] | 0 | 20 | 80 | 100 | 20 | 60 | 0 | 90 | 0 | 0 | 10 | 60 | 0 | 70 | 80 | 90
4 | CCOC(=O)N(c1cc(C(=O)N2CCC(C)CC2)c(C)cc1C)S(=O)(=O)C(F)(F)F [Compound 354] | 0 | 0 | 80 | 100 | 20 | 50 | 20 | 70 | 0 | 0 | 0 | 70 | 0 | 100 | 40 | 80
5 | CCC1ON=C(c2cc(N(C(=O)OCC(C)C)S(=O)(=O)C(F)(F)F)c(C)cc2C)C1CC (stereo not drawn) [Compound 348] | 0 | 10 | 30 | 90 | 0 | 10 | 0 | 70 | 0 | 90 | 20 | 30 | 0 | 30 | 60 | 80
6 | Cc1c(NS(=O)(=O)C(F)(F)F)cc(C(=O)N2CC(C)OC(C)C2)c(C)c1C (stereo not drawn) [Compound 327] | 0 | 60 | 100 | 100 | 90 | 90 | 40 | 50 | 0 | 0 | 30 | 90 | 20 | 70 | 100 | 100
7 | CCOC(=O)N(c1cc(C(=O)N2CCC(c3ccccc3)CC2)c(C)cc1C)S(=O)(=O)C(F)(F)F [Compound 365] | 0 | 0 | 0 | 30 | 0 | 20 | 0 | 30 | 0 | 30 | 0 | 0 | 0 | 0 | 40 | 80
8 | Cc1cc(C)c(N(COC(=O)C(C)(C)C)S(=O)(=O)C(F)(F)F)cc1C1=NOC2(C)CCCC12 (stereo not drawn) [Compound 341] | 0 | 0 | 0 | 50 | 0 | 0 | 0 | 40 | 0 | 0 | 0 | 20 | 0 | 60 | 50 | 80
9 | Cc1cc(C)c(C2=NOC3OCCC23)cc1NS(=O)(=O)C(F)(F)F (stereo not drawn) [Compound 349] | 20 | 100 | 90 | 100 | 30 | 90 | 70 | 80 | 40 | 70 | 30 | 90 | 90 | 90 | 100 | 100
10 | COc1cnn(-c2cc(NS(=O)(=O)C(F)(F)F)c(C)cc2C)c(=O)c1OC [Compound 282] | 0 | 50 | 0 | 30 | 0 | 20 | 0 | 40 | 0 | 20 | 0 | 20 | 20 | 80 | – | 0
